{"source": "patent US20110045103A1", "about": "“METHODS FOR TREATING AIDS” (priority 2009, published 2011)", "key": {"[1]": {"tested_on": "MT-2 cells (human T-cell leukemia cells)", "assay": "Cytotoxicity control of the virucidal assay", "format": "cell-based", "settings": "ten minute exposure", "description": "(§1) Test Cultures: MT-2 cells (human T-cell leukemia cells) were obtained through the AIDS Research and Reference Reagent Program, Division of AIDS, NIAID, NIH from Dr. Douglas Richman. Cultures were maintained and used in suspension in tissue culture labware at 36-38° C. in a humidified atmosphere of 5-7% CO2.\nCytotoxicity Control: A 1.80 mL aliquot of the test substance was mixed with a 0.2 mL aliquot of test medium containing the BSA organic soil load, in lieu of virus, and treated as previously described. The cytotoxicity control was held for the ten minute exposure time. […] The cytotoxicity of the MT-2 cell cultures was scored at the same time as virus-test substance and virus control cultures. Cytotoxicity was graded on the basis of cell viability as determined microscopically. […]\nCells in the multiwall culture dishes were inoculated in quadruplicate with 0.2 mL of the dilutions prepared from test and control groups. […] The cultures were scored periodically for eight days for the absence or presence of CPE, cytotoxicity, and for viability.\n(§2) Data analysis: Viral and cytotoxicity titers are expressed as −log 10 of the 50 percent titration endpoint for infectivity (TCID50) or cytotoxicity (TCD50), respectively, as calculated by the method of Spearman Karber: […]"}, "[2]": {"tested_on": "human immunodeficiency virus (HIV) Type I, strain HTLV-IIIB", "assay": "Virucidal efficacy assay: virus suspension exposed to test composition, then titered by infectivity (CPE) in MT-2 cells", "format": "cell-based, HIV Type 1", "description": "Composition Tested: A 20 mL vial of ammonium chloride (100 mEq/5 mL) was dissolved into a 1 liter bag of 0.9% sodium chloride injection USP (9 g/L sodium chloride; osmolarity of 308 mOsmol/L; 154 mEq/L sodium; 154 mEq/L chloride). The contents of the bag were transferred to a sterile glass bottle. The solution was equilibrated to room temperature prior to use.\nVirus: human immunodeficiency virus (HIV) Type I, strain HTLV-IIIB, was obtained from Advanced Biotechnologies, Inc., Columbia, Md. Stock virus was prepared by collecting the supernatant culture fluid from infected culture cells. The cells were disrupted and cell debris removed by centrifugation at approximately 2200 RPM for ten minutes at room temperature. The supernatant was removed, aliquoted, and the high titer stock virus was stored at ≦−70° C. until the day of use. On the day of use, an aliquot of stock virus was removed, thawed, and maintained at a refrigerated temperature until used in the assay. The stock virus culture was adjusted to contain 5% fetal bovine serum as the organic soil lead.\nas §1\nTest Medium: The test medium used for the assay was RPMI 1640 supplemented with 10% (v/v) heat-inactivated fetal bovine serum (FBS). The medium was also supplemented with 2.0 mM L-glutamine and 50 μg/mL gentamicin.\nTreatment of Virus Suspension: A 1.80 mL aliquot of the test substance was dispensed into a sterile tube and mixed with a 0.2 mL aliquot of the stock virus suspension. The mixture was vortex mixed for 10 seconds and held for the remainder of the specified exposure time at 37.0° C. The exposure time was ten minutes. Following the exposure time, a 0.1 mL aliquot was removed from the tube and the mixture was immediately titered by 10-fold serial dilution (0.1 mL+0.9 mL test medium) and assayed for the presence of virus in MT-2 cells. To decrease the test substance cytotoxicity, the first dilution was made in FBS with the remaining dilutions in test medium.\nTreatment of Virus Control: A 0.2 mL aliquot of stock virus suspension was exposed to a 1.80 mL aliquot of test medium, in lieu of test substance, and treated as previously described. Following the exposure time, a 0.1 mL aliquot was removed from the tube and the mixture was immediately titered by 10-fold serial dilution (0.1 mL+0.9 mL test medium) and assayed for the presence of virus in MT-2 cells. All controls employed the FBS neutralizer as described in the Treatment of Virus Suspension section above. The virus control titer was used as a baseline to compare the percent and log reductions of the test parameter following exposure to the test substance.\nCells in the multiwall culture dishes were inoculated in quadruplicate with 0.2 mL of the dilutions prepared from test and control groups. Uninfected indicator cell cultures (cell controls) were inoculated with test medium alone. The cultures were incubated at 36-38° C. in a humidified atmosphere of 5-7% CO2 in sterile disposable cell culture labware. The cultures were scored periodically for eight days for the absence or presence of CPE, cytotoxicity, and for viability.\nas §2\nCalculation of Percent (%) Reduction:\nCalculation of Log Reduction:\nTCID50 of the virus control—TCID50 of the test substance=Log reduction Study Acceptance Criteria: A valid test required the following: (1) that stock virus be recovered from the virus control; (2) that the cell controls be negative for virus; and (3) that negative cultures are viable."}, "[3]": {"settings": "ten minute exposure at 37° C., 5% fetal bovine serum, compared to virus control"}}, "data": [{"smiles": "Cl.N", "note": "[Ammonium Chloride, ammonium chloride]", "values": [{"measurement": "Test substance cytotoxicity (not observed at any dilution tested)", "setting": "[1]", "value": "≤ 1.5", "unit": "log 10"}, {"measurement": "Presence of test virus, four cultures", "setting": "[2]; dilution 10^-2, after ten minute exposure", "value": "+ + + +"}, {"measurement": "Presence of test virus, four cultures", "setting": "[2]; dilution 10^-3, after ten minute exposure", "value": "+ + + +"}, {"measurement": "Presence of test virus, four cultures", "setting": "[2]; dilution 10^-4, after ten minute exposure", "value": "+ + + +"}, {"measurement": "Log10 Reduction in viral titer", "setting": "[2]; [3]", "value": 1.0, "unit": "Log10"}, {"measurement": "Percent Reduction in viral titer", "setting": "[2]; [3]", "value": 90.0, "unit": "%"}, {"measurement": "Percent Reduction in viral titer", "setting": "[2]; ten minute exposure at 37° C., 5% fetal bovine serum, compared to virus control, listed as ammonium chloride", "value": 90, "unit": "%"}, {"measurement": "test virus infectivity detected in the virus-test substance mixture", "setting": "[2]; ten minute exposure at 37° C., virus control titer 6.0 log 10", "value": 5.0, "unit": "log 10"}]}]}
